Measured values reported in article PMC6364417, “Kinase inhibitor library screening identifies synergistic drug combinations effective in sensitive and resistant melanoma cells” (Journal of Experimental & Clinical Cancer Research : CR, 2019).

Columns and labels:
Experiment in all cases: Kinase inhibitor library screening, PrestoBlue cell viability, 1 or 10 μM, 72 h
[1] = tested on: A375-GP cells (Dabrafenib-resistant); conditions: A375 GP, 72 h
A375 cells (parental) = conditions: A375 Parental, 72 h
501Mel cells (parental) = conditions: 501Mel Parental, 72 h
How it was run: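 Readout: PrestoBlue signal on a monochromator plate reader, given as percent viability relative to untreated controls. Parental and drug-resistant (Vemurafenib XP, Dabrafenib GP) sublines were tested; at least duplicates per line.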

[2] = tested on: IGR37-XP cells (Vemurafenib-resistant); conditions: IGR37 XP, 72 h
IGR37 cells (parental) = conditions: IGR37 Parental, 72 h
[3] = tested on: 501Mel-XP cells (Vemurafenib-resistant); conditions: 501Mel XP, 72 h
[4] = tested on: A375-XP cells (Vemurafenib-resistant); conditions: A375 XP, 72 h
[5] = tested on: IGR37-GP cells (Dabrafenib-resistant); conditions: IGR37 GP, 72 h
[6] = tested on: 501Mel-GP cells (Dabrafenib-resistant); conditions: 501Mel GP, 72 h

Structure (SMILES) | cell viability (kinase inhibitor library screening) ([1]; 1μΜ) | cell viability (kinase inhibitor library screening) ([1]; 10μΜ) | cell viability (kinase inhibitor library screening) (A375 cells (parental); 10μΜ) | cell viability (kinase inhibitor library screening) (A375 cells (parental); 1μΜ) | cell viability (kinase inhibitor library screening) (501Mel cells (parental); 1μΜ) | cell viability (kinase inhibitor library screening) (501Mel cells (parental); 10μΜ) | cell viability (kinase inhibitor library screening) ([2]; 1μΜ) | cell viability (kinase inhibitor library screening) ([2]; 10μΜ) | cell viability (kinase inhibitor library screening) (IGR37 cells (parental); 1μΜ) | cell viability (kinase inhibitor library screening) ([3]; 1μΜ) | cell viability (kinase inhibitor library screening) ([3]; 10μΜ) | cell viability (kinase inhibitor library screening) ([4]; 1μΜ) | cell viability (kinase inhibitor library screening) ([4]; 10μΜ) | cell viability (kinase inhibitor library screening) ([5]; 10μΜ) | cell viability (kinase inhibitor library screening) ([6]; 1μΜ) | cell viability (kinase inhibitor library screening) ([6]; 10μΜ) | cell viability (kinase inhibitor library screening) (IGR37 cells (parental); 10μΜ) | cell viability (kinase inhibitor library screening) ([5]; 1μΜ) | other results
CC(=O)c1c(C)c2cnc(Nc3ccc(N4CCNCC4)cn3)nc2n(C2CCCC2)c1=O.Cl [PD 0332991 (Palbociclib) HCl] | 77.9% | 57.2% | 59.1% | 78.9% | 89.7% | 80.1% | 98.1% | 28.9% | 96.5% | 76.9% | 25.1% | 74.5% | 63.1% | 78.0% | 83.8% | 66.3% | – | – | –
CN(c1ncccc1CNc1nc(Nc2ccc3c(c2)CC(=O)N3)ncc1C(F)(F)F)S(C)(=O)=O [PF-00562271] | – | – | – | – | – | – | – | – | – | – | – | – | – | – | – | – | – | – | cell viability, A375 GP, 1μΜ ([1]; 1μΜ, in %): 92.2; cell viability, A375 GP, 10μΜ ([1]; 10μΜ, in %): 4.9; cell viability, A375 Parental, 1μΜ (A375 cells (parental); 1μΜ, in %): 104.9; cell viability, A375 Parental, 10μΜ (A375 cells (parental); 10μΜ, in %): 4.0; cell viability, 501Mel Parental, 10μΜ (501Mel cells (parental); 10μΜ, in %): 1.5; cell viability, IGR37 XP, 10μΜ ([2]; 10μΜ): 1.9%; cell viability, IGR37 XP, 1μΜ ([2]; 1μΜ, in %): 82.7; cell viability, IGR37 Parental, 1μΜ (IGR37 cells (parental); 1μΜ, in %): 103.3; cell viability, IGR37 Parental, 10μΜ (IGR37 cells (parental); 10μΜ, in %): 3.6; cell viability, 501Mel XP, 1μΜ ([3]; 1μΜ, in %): 94.1; cell viability, 501Mel XP, 10μΜ ([3]; 10μΜ, in %): 0.458; cell viability, A375 XP, 1μΜ ([4]; 1μΜ, in %): 107.5; cell viability, A375 XP, 10μΜ ([4]; 10μΜ, in %): 3.4; cell viability, IGR37 GP, 10μΜ ([5]; 10μΜ): 2.9%; cell viability, 501Mel GP, 1μΜ ([6]; 1μΜ, in %): 98.0; cell viability, 501Mel GP, 10μΜ ([6]; 10μΜ, in %): 0.9
CC(=O)NCC(=O)N1[C@@H]2CC[C@H]1c1ccc(Nc3ncc(C(F)(F)F)c(NC4CCC4)n3)cc12 [PF-03814735] | 35.1% | 3.7% | 8.5% | 32.3% | 82.8% | 24.0% | 69.3% | 2.0% | 88.9% | 72.2% | 3.8% | 40.9% | 12.4% | 10.4% | 89.2% | 8.3% | 37.6% | 91.2% | –
CN(C)C1CCN(C(=O)c2ccc(NC(=O)Nc3ccc(-c4nc(N5CCOCC5)nc(N5CCOCC5)n4)cc3)cc2)CC1 [PF-05212384 (PKI-587)] | – | – | – | – | – | – | – | – | – | – | – | – | – | – | – | – | – | – | Cell viability in kinase inhibitor library screening, A375 GP, 1μΜ ([1]; 1μΜ): 34.6; Cell viability in kinase inhibitor library screening, A375 GP, 10μΜ ([1]; 10μΜ): 13.9; Cell viability in kinase inhibitor library screening, A375 Parental, 10μΜ (A375 cells (parental); 10μΜ): 13.9; Cell viability in kinase inhibitor library screening, A375 Parental, 1μΜ (A375 cells (parental); 1μΜ): 35.9; Cell viability in kinase inhibitor library screening, 501Mel Parental, 1μΜ (501Mel cells (parental); 1μΜ, in %): 22.6; Cell viability in kinase inhibitor library screening, 501Mel Parental, 10μΜ (501Mel cells (parental); 10μΜ, in %): 1.3; Cell viability in kinase inhibitor library screening, IGR37 XP, 10μΜ ([2]; 10μΜ): 3%; Cell viability in kinase inhibitor library screening, IGR37 XP, 1μΜ ([2]; 1μΜ, in %): 33.0; Cell viability in kinase inhibitor library screening, IGR37 Parental, 1μΜ (IGR37 cells (parental); 1μΜ, in %): 35.0; Cell viability in kinase inhibitor library screening, IGR37 Parental, 10μΜ (IGR37 cells (parental); 10μΜ, in %): 14.2; Cell viability in kinase inhibitor library screening, 501Mel XP, 1μΜ ([3]; 1μΜ, in %): 53.1; Cell viability in kinase inhibitor library screening, 501Mel XP, 10μΜ ([3]; 10μΜ, in %): 0.9; Cell viability in kinase inhibitor library screening, A375 XP, 1μΜ ([4]; 1μΜ): 33.4; Cell viability in kinase inhibitor library screening, A375 XP, 10μΜ ([4]; 10μΜ): 11.6; Cell viability in kinase inhibitor library screening, IGR37 GP, 10μΜ ([5]; 10μΜ): 6.8%; Cell viability in kinase inhibitor library screening, IGR37 GP, 1μΜ ([5]; 1μΜ, in %): 39.4; Cell viability in kinase inhibitor library screening, 501Mel GP, 1μΜ ([6]; 1μΜ, in %): 29.3; Cell viability in kinase inhibitor library screening, 501Mel GP, 10μΜ ([6]; 10μΜ, in %): 2.2
Cc1[nH]c(/C=C2\C(=O)Nc3ccc(S(=O)(=O)Cc4c(Cl)cccc4Cl)cc32)c(C)c1C(=O)N1CCC[C@@H]1CN1CCCC1 [PHA-665752] | 96.1% | 0.5% | 1.9% | 98.9% | 100.2% | 0.232% | – | 0.9% | 99.2% | 70.6% | -0.7% | 99.9% | 0.9% | 0.8% | 86.9% | -0.7% | 0.24% | 98.8% | –
CCc1cccc(CC)c1NC(=O)N1Cc2n[nH]c(NC(=O)c3ccc(N4CCN(C)CC4)cc3)c2C1 [PHA-680632] | 81.0% | 37.4% | 37.5% | 85.1% | 104.0% | 95.7% | 96.4% | 40.2% | 93.9% | 96.6% | 75.1% | 93.5% | 51.3% | 78.7% | 105.0% | 79.1% | 73.1% | 92.2% | –
CNC(=O)c1nn(C)c2c1C(C)(C)Cc1cnc(Nc3ccc(N4CCN(C)CC4)cc3)nc1-2 [PHA-848125] | 57.9% | 4.3% | 5.7% | 56.7% | 75.4% | 14.7% | 75.2% | 31.7% | 95.1% | 75.1% | 14.5% | 66.4% | 7.5% | 66.9% | 63.8% | 28.1% | 70.2% | 78.8% | –
CCCCCCCCCCCCc1ccc(S(=O)(=O)Nc2nncs2)cc1 [PHT-427] | 107.5% | 93.5% | 98.4% | – | 99.9% | 96.2% | – | 79.8% | – | – | 85.4% | 106.9% | 100.2% | 98.8% | 115.7% | 95.0% | 110.3% | 95.0% | –
